The target in assay [1] is T1, PTPN2 (HiBIT-PTPN2 in 293T.109 cells) (Homo sapiens, UniProt P17706).
T1 construct: expressed in transfected cells; host or cells: 293T.109 (293T WT from ATCC)
T1 sequence (P17706 1-415): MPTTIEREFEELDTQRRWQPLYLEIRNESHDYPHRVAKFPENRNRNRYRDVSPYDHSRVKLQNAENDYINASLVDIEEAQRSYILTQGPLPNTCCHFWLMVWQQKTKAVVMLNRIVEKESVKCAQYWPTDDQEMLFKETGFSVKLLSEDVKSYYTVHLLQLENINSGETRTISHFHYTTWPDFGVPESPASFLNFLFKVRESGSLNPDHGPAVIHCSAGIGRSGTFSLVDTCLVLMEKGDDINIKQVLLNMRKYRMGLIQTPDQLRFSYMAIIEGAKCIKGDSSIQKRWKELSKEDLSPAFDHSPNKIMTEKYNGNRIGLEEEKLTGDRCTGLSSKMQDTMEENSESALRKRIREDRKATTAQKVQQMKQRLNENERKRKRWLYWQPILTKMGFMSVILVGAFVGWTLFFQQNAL
Description: HiBiT Degradation 293T.109 PTPN2 (Nano-Glo HiBiT Lytic Assay). The format is cell-based. The settings on record: 24.0 hours. The method, boiled down: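 293T.109 cells with ectopic N-terminal HiBiT-tagged PTPN2 (5000/well) exposed to compounds for 24 h at 37 °C, 5% CO2; 11-point half-log titration from 10 μM top, duplicates. Remaining HiBiT-PTPN2 read as luminescence with Nano-Glo HiBiT lytic reagent, normalised to untreated cells (0%) and reagent-free wells.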
On the technique in general: With HiBiT, luminescence reflects the tagged protein that the partner subunit can reach.

The target in another assay is T2, PTPN2 (B16F10.4 cells) (Mus musculus, UniProt Q06180).
T2 construct: HiBiT; host or cells: B16F10.4
T2 sequence (Q06180 1-406): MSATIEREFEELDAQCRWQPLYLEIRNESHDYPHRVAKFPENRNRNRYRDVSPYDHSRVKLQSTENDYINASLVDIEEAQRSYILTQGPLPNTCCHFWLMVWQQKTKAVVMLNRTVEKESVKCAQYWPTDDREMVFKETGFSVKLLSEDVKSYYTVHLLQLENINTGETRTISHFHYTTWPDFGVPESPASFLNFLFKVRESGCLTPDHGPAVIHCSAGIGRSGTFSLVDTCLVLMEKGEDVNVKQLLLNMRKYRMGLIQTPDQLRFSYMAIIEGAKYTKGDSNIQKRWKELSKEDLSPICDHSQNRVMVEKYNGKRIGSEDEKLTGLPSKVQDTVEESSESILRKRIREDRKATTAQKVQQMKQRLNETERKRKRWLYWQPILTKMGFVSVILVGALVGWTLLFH
Description: HiBiT Degradation B16F10.4 PTPN2. Format: cell-based. The settings on record: 24.0 hours.

We go through 15 compounds from patent US20250302815A1, “PROTEIN TYROSINE PHOSPHATASE TARGETING LIGANDS” (CALICO LIFE SCIENCES LLC, priority 2021, published 2025).

`CC1(C)C[C@@H](Nc2cccc(-c3sc(C(=O)O)c(OCC(=O)O)c3Cl)c2)CCN1S(=O)(=O)Cc1cccc(NC(=O)[C@H]2CC[C@H](C(=O)Nc3cccc4c3CN(C3CCC(=O)NC3=O)C4=O)CC2)c1` (stereo partly drawn) [Example 86, 3-(carboxymethoxy)-4-chloro-5-(3-(((4S)-1-((3-((1r,4R)-4-((2-(2,6-dioxopiperidin-3-yl)-1-oxoisoindolin-4-yl)carbamoyl)cyclohexane-1-carboxamido)benzyl)sulfonyl)-2,2-dimethylpiperidin-4-yl)amino)phenyl)thiophene-2-carboxylic acid]: the DC50 (usually the concentration at which degradation of the target reaches its halfway point) in assay [1] fell in the range of 0.05 to 0.2 µM; on PTPN2 (B16F10.4 cells) it was 0.2 to 1 µM.
For the compound `Cn1c(=O)n(C2CCC(=O)NC2=O)c2ccc(OC3CN(C(=O)Nc4cccc(CS(=O)(=O)N5CC[C@H](Nc6cccc(-c7sc(C(=O)O)c(OCC(=O)O)c7Cl)c6)CC5(C)C)c4)C3)cc21` (stereo partly drawn) [Example 116], the DC50 (in assay [1]; at PTPN2 (B16F10.4 cells)) was 0.05 to 0.2 µM in each case.
As to `Cn1c(=O)n(C2CCC(=O)NC2=O)c2ccc([C@H]3CC[C@H](C(=O)Nc4cccc(CS(=O)(=O)N5CC[C@H](Nc6cccc(-c7sc(C(=O)O)c(OCC(=O)O)c7Cl)c6)CC5(C)C)c4)CC3)cc21` (stereo partly drawn) [Example 138, 3-(carboxymethoxy)-4-chloro-5-(3-(((4S)-1-((3-((1r,4S)-4-(1-(2,6-dioxopiperidin-3-yl)-3-methyl-2-oxo-2,3-dihydro-1H-benzo[d]imidazol-5-yl)cyclohexane-1-carboxamido)benzyl)sulfonyl)-2,2-dimethylpiperidin-4-yl)amino)phenyl)thiophene-2-carboxylic acid], the DC50 (in assay [1]; on PTPN2 (B16F10.4 cells)) was less than 0.05 µM throughout.
For the compound `Cn1c(=O)n(C2CCC(=O)NC2=O)c2ccc(N3CCC(OCC(=O)Nc4cccc(CS(=O)(=O)N5CC[C@H](Nc6cccc(-c7sc(C(=O)O)c(OCC(=O)O)c7Cl)c6)CC5(C)C)c4)CC3)cc21` (stereo partly drawn) [Example 105, 3-(carboxymethoxy)-4-chloro-5-[3-[[(4S)-1-[[3-[[2-[[1-[1-(2,6-dioxo-3-piperidyl)-3-methyl-2-oxo-benzimidazol-5-yl]-4-piperidyl]oxy]acetyl]amino]phenyl]methylsulfonyl]-2,2-dimethyl-4-piperidyl]amino]phenyl]thiophene-2-carboxylic acid], the DC50 in assay [1] lay within 0.05 to 0.2 µM; at PTPN2 (B16F10.4 cells), 0.2 to 1 µM.
For `CC1(C)C[C@@H](Nc2cccc(-c3sc(C(=O)O)c(OCC(=O)O)c3Cl)c2)CCN1S(=O)(=O)Cc1cccc(NC(=O)N2CCC(Oc3cccc4c3CN(C3CCC(=O)NC3=O)C4=O)CC2)c1` (stereo partly drawn) [Example 72] the same measures were 0.05 to 0.2 µM and 0.05 to 0.2 µM.
On to `CC1(C)C[C@@H](Nc2cccc(-c3sc(C(=O)O)c(OCC(=O)O)c3Cl)c2)CCN1S(=O)(=O)Cc1cccc(NC(=O)N2CCC[C@@H](c3ccc4c5c(cccc35)N(C3CCC(=O)NC3=O)C4=O)CC2)c1` (stereo partly drawn) [Example 224, 3-(carboxymethoxy)-4-chloro-5-(3-(((4S)-1-((3-((4R)-4-(1-(2,6-dioxopiperidin-3-yl)-2-oxo-1,2-dihydrobenzo[cd]indol-5-yl)azepane-1-carboxamido)benzyl)sulfonyl)-2,2-dimethylpiperidin-4-yl)amino)phenyl)thiophene-2-carboxylic acid], for which the DC50 (in assay [1]; at PTPN2 (B16F10.4 cells)) was 0.05 to 0.2 µM throughout.
Turning to `Cn1c(=O)n(C2CCC(=O)NC2=O)c2ccc([C@@H]3CCN(C(=O)Nc4cccc(CS(=O)(=O)N5CC[C@H](Nc6cccc(-c7sc(C(=O)O)c(OCC(=O)O)c7Cl)c6)CC5(C)C)c4)CC3(F)F)cc21` (stereo partly drawn) [Example 169, 3-(carboxymethoxy)-4-chloro-5-(3-(((4S)-1-((3-((4S)-4-(1-(2,6-dioxopiperidin-3-yl)-3-methyl-2-oxo-2,3-dihydro-1H-benzo[d]imidazol-5-yl)-3,3-difluoropiperidine-1-carboxamido)benzyl)sulfonyl)-2,2-dimethylpiperidin-4-yl)amino)phenyl)thiophene-2-carboxylic acid], the DC50 (in assay [1]; on PTPN2 (B16F10.4 cells)) was less than 0.05 µM throughout.
With `CC1(C)C[C@@H](Nc2cccc(-c3sc(C(=O)O)c(OCC(=O)O)c3Cl)c2)CCN1S(=O)(=O)Cc1cccc(NC(=O)N2CCC(c3ccc4c(c3)CCN4C3CCC(=O)NC3=O)CC2)c1` (stereo partly drawn) [Example 94, 3-(carboxymethoxy)-4-chloro-5-[3-[[(4S)-1-[[3-[[4-[1-(2,6-dioxo-3-piperidyl)indolin-5-yl]piperidine-1-carbonyl]amino]phenyl]methylsulfonyl]-2,2-dimethyl-4-piperidyl]amino]phenyl]thiophene-2-carboxylic acid], the DC50 (in assay [1]; on PTPN2 (B16F10.4 cells)) was 0.2 to 1 µM in each case.
Take `CC1(C)C[C@@H](Nc2cccc(-c3sc(C(=O)O)c(OCC(=O)O)c3Cl)c2)CCN1S(=O)(=O)Cc1cccc(NC(=O)N2CCC(c3ccc4c5c(cccc35)C(=O)N4C3CCC(=O)NC3=O)CC2)c1F` (stereo partly drawn) [Example 128, 3-(carboxymethoxy)-4-chloro-5-(3-(((4S)-1-((3-(4-(1-(2,6-dioxopiperidin-3-yl)-2-oxo-1,2-dihydrobenzo[cd]indol-6-yl)piperidine-1-carboxamido)-2-fluorobenzyl)sulfonyl)-2,2-dimethylpiperidin-4-yl)amino)phenyl)thiophene-2-carboxylic acid]: the results for the DC50 (in assay [1]; on PTPN2 (B16F10.4 cells)) were 0.05 to 0.2 µM and less than 0.05 µM, respectively.
Regarding `Cn1c(=O)n(C2CCC(=O)NC2=O)c2ccc(C3CCN(C(=O)Nc4cccc(CS(=O)(=O)N5CCC(Nc6cccc(-c7sc(C(=O)O)c(OCC(=O)O)c7Cl)c6F)CC5)c4)CC3)cc21` (stereo not drawn) [Example 123, 3-(carboxymethoxy)-4-chloro-5-[3-[[1-[[3-[[4-[1-(2,6-dioxo-3-piperidyl)-3-methyl-2-oxo-benzimidazol-5-yl]piperidine-1-carbonyl]amino]phenyl]methylsulfonyl]-4-piperidyl]amino]-2-fluoro-phenyl]thiophene-2-carboxylic acid], the DC50 (in assay [1]; at PTPN2 (B16F10.4 cells)) was 0.05 to 0.2 µM in each case.
As to `CC1(C)C[C@H](Nc2cccc(-c3sc(C(=O)O)c(OCC(=O)O)c3Cl)c2)CCN1S(=O)(=O)Cc1cc(NC(=O)N2CCC(c3ccc4c5c(cccc35)C(=O)N4C3CCC(=O)NC3=O)CC2)ccc1F` (stereo partly drawn) [Example 162], the DC50 in assay [1] is 0.2 to 1 µM; at PTPN2 (B16F10.4 cells), less than 0.05 µM.
The matching figures for `CC(C)n1c(=O)n(C2CCC(=O)NC2=O)c2ccc(C3CCN(C(=O)Nc4cccc(CS(=O)(=O)N5CC[C@H](Nc6cccc(-c7sc(C(=O)O)c(OCC(=O)O)c7Cl)c6)CC5(C)C)c4)CC3)cc21` (single isomer, unassigned) [Example 87b]: 0.05 to 0.2 µM and 0.05 to 0.2 µM.
With `Cn1c(=O)n(C2CCC(=O)NC2=O)c2ccc([C@H]3CC[C@@H](C(=O)Nc4cccc(CS(=O)(=O)N5CC[C@H](Nc6cccc(-c7sc(C(=O)O)c(OCC(=O)O)c7Cl)c6)CC5(C)C)c4)CC3)cc21` (stereo partly drawn) [Example 139, 3-(carboxymethoxy)-4-chloro-5-(3-(((4S)-1-((3-((1s,4R)-4-(1-(2,6-dioxopiperidin-3-yl)-3-methyl-2-oxo-2,3-dihydro-1H-benzo[d]imidazol-5-yl)cyclohexane-1-carboxamido)benzyl)sulfonyl)-2,2-dimethylpiperidin-4-yl)amino)phenyl)thiophene-2-carboxylic acid], the DC50 was less than 0.05 µM in assay [1] and 0.05 to 0.2 µM on PTPN2 (B16F10.4 cells).
As to `Cn1c(=O)n([C@H]2CCC(=O)NC2=O)c2ccc([C@@H]3CCN(C(=O)Nc4cccc(CS(=O)(=O)N5CC[C@H](Nc6cccc(-c7sc(C(=O)O)c(OCC(=O)O)c7Cl)c6)CC5(C)C)c4)CC3(F)F)cc21` (single isomer, unassigned) [Example 169a], the DC50 (in assay [1]; at PTPN2 (B16F10.4 cells)) was less than 0.05 µM in each case.
`CC1(C)C[C@@H](Nc2cccc(-c3sc(C(=O)O)c(OCC(=O)O)c3Cl)c2)CCN1S(=O)(=O)Cc1cccc(NC(=O)CCOCCOCCOCCCc2cccc3c2C(=O)N(C2CCC(=O)NC2=O)C3=O)c1` (stereo partly drawn) [Example 35, 3-(carboxymethoxy)-4-chloro-5-[3-[[(4S)-1-[[3-[3-[2-[2-[3-[2-(2,6-dioxo-3-piperidyl)-1,3-dioxo-isoindolin-4-yl]propoxy]ethoxy]ethoxy]propanoylamino]phenyl]methylsulfonyl]-2,2-dimethyl-4-piperidyl]amino]phenyl]thiophene-2-carboxylic acid]: the DC50 (in assay [1]; on PTPN2 (B16F10.4 cells)) was 0.2 to 1 µM in each case.
